For one series, the target named is T1, Rat NHE3 (Rattus norvegicus, UniProt P26433).
T1 construct: expressed in transfected cells; host or cells: LAP1 (NHE-deficient cell line), stably transfected with pMAMneo plasmid
Nature of the series: NHE activity measurement (pHi recovery after acid load, transfected LAP1 cells). It is filed as cell-based. To be noted: stably transfected LAP1 cells, pH recovery recorded for 3 minutes, BCECF. The source says:
In the context of our studies, stably transfected cell lines were produced that in each case expressed one of the following NHE subtypes: Human NHE1 (Sardet et al. Cell 56:271-280 (1989)), rabbit NHE2 (Tse et al.; J. Biol. Chem. 268:11917-11924 (1993)), human NHE3 (Brant et al. Am. J. Physiol. 269 (Cell Physiol. 38) C198-C206 (1995)), or rat NHE3 (Orlowski et al.; J. Biol. Chem. 267:9331-9339 (1992)).
The cDNA clones of the respective NHE subtypes obtained by Prof. Pouyssegur were, after addition of suitable linker sequences, cloned into the expression plasmid pMAMneo (obtainable, for example, via CLONTECH, Heidelberg) such that the recognition sequence for the restriction endonuclease Nhel of the plasmid was approximately 20-100 Basepairs before the start codon of the respective NHE subtype and that the total coding sequence was present in the construct. In the case of the human NHE3 obtained from human kidney mRNA by means of RT-PCR, the RT-PCR primers were selected such that the cDNA band obtained had cleavage sites suitable for pMAMneo at its ends.
Using the “calcium phosphate method” (described in chapter 9.1 of “Current Protocols in Molecular Biology”), the NHE-deficient cell line LAP1 (Franchi et al.; Proc. Natl. Acad. Sci. USA 83:9388-9392 (1986)) was transfected with the plasmids that received the respective coding sequences of the NHE subtypes. […]
In this test, the recovery of the intracellular pH (pHi) after an acidification, which in the case of functional NHE occurs even under bicarbonate-free conditions, was determined. For this, the pHi was determined using the pH-sensitive fluorescent dye BCECF (Calbiochem, where the precursor BCECF-AM is employed). […] The BCECF fluorescence was determined in a “Ratio Fluorescence Spectrometer” (Photon Technology International, South Brunswick, N.J., USA) at excitation wavelengths of 505 and 440 nm and an emission wavelength of 535 nm and converted into the pHi by means of calibration curves. […]

The test system of another series is Caco-2 cell line. Nature of the series: Caco 2 model (transport through Caco-2 monolayers, absorbed fraction). It is filed as in vitro ADME. To be noted: apical to basolateral, pH 7.8, 37° C., test concentration 1 mM / 100 μM, from Papp via sigmoidal calibration curve. On the procedure: The Caco-2 cell line was acquired from the American Type Culture Collection (ATCC) and maintained in Dulbecco's Modified Eagle medium (high glucose content), supplemented with nonessential amino acids, L-glutamine, penicillin/streptomycin, and 10% strength fetal calf serum. The Caco-2 cell line was then kept in an incubator under a 10% strength CO2 atmosphere at 95% strength relative humidity and 37° C. The cells were grown in cell culture flasks (175 cm^2). For the transport investigations, the Caco-2 cells were inoculated into polycarbonate cell culture inserts (costar Transwells®, pore size: 3 μm, area: 4.71 cm^2) at a cell density of 6.5×10^4 cells/cm^2 and incubated in six-well culture plates with a change of medium after 4 and 8 days and then every second day thereafter. 21 to 25 day-old monolayers were used for the experiments.
In each test series, a 21 day-old monolayer was tested for its properties with ^3H-dextran as a permeability marker. The value of the transfer rate (cumulative) had to be in the range of 2% after 120 min.
After eliminating the growth medium from the apical and the basolateral side, the monolayers were rinsed with the transport buffer (Hank's balanced salt solution, pH 7.8; containing 2.8 g/l glucose).The cells were then equilibrated for 15 min at 37° C. under a 10% strength C02 atmosphere. The HBSS buffer was then removed. The test compounds were dissolved in a mixture of HBSS buffer and DMSO and added to the apical buffer such that a 1% strength (v/v) DMSO solution resulted. The test concentration in the first experiment was 1 mM, and 100 μM in the second. The experiments were carried out at 37° C. and started by the addition of 1.5 ml of test solution to the donor side (apical). Transport buffer without compound was added to the recipient side (basolateral, 2.5 ml). At various points in time, samples were taken from the basolateral side (1 ml) and replaced by fresh buffer solution at 37° C. […]
The compounds were analyzed by means of HPLC.
The apparent permeability coefficient (Papp) was calculated by means of the following equation: [formula]
wherein dc/dt is the flow through the monolayer (μg of compound/ml x s), V is the liquid volume in the collection chamber (ml), A is the surface area size of the monolayer (cm^2) and c0 is the initial concentration (μg of compound/ml) in the donor chamber. The flow through the monolayer was calculated from the cumulative basolateral concentration at the appropriate point in time with the aid of the initially linear data curve (linear up to 60 min). The respective determinations were made in triplicate, such that the calculated Papp value represents the mean of three measurements. […]
On the technique in general: Passage across Caco-2 layers is used to estimate intestinal permeability.

The next series relates to NHE3. Conditions: NHE3 inhibitor; cited from earlier work.

SMILES strings stand for the structures. Structures can show the parent of a compound that is named as a salt. Bounds are passed on as bounds.

T1 sequence (P26433 29-831): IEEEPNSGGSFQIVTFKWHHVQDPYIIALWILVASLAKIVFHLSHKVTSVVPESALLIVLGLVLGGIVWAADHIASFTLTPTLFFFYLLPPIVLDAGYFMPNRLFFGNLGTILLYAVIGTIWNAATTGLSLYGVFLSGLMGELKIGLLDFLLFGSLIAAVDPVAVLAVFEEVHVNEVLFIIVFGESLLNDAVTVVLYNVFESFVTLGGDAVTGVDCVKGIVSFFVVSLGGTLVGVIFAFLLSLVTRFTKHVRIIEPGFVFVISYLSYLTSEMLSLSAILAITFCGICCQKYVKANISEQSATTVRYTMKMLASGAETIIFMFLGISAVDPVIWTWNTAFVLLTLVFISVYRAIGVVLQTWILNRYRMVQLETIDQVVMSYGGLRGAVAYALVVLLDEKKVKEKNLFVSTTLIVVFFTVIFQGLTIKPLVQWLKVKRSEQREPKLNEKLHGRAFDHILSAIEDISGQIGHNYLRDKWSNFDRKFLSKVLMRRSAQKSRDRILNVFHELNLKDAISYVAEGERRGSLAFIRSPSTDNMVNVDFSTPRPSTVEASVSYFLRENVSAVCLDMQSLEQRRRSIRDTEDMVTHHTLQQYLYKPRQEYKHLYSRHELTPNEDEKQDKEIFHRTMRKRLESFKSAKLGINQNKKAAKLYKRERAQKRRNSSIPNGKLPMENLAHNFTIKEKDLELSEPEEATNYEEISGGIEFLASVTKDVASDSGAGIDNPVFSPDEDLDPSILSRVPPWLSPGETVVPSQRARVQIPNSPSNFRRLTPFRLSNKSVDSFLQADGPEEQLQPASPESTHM

Compound `c1cncc(CN[C@@H]2C[C@@H]3C[C@H]2[C@@H]2CCCC[C@H]32)c1` (as salt: hydrochloride) [Example 8, exo/endo-(decahydro-1,4-methanonaphthalen-2-yl)-pyridin-3-ylmethyl-amine Hydrochloride] gave a melting point of 283 to 285 °C.

Take `c1cncc(CN[C@@H]2C[C@@H]3C[C@H]2[C@@H]2CCC[C@H]32)c1` (racemic) [Example 1, (rac)-exo/endo-(octahydro-4,7-methanoinden-5-yl)pyridin-3-ylmethylamine Hydrochloride]: the 50% inhibitory concentration (IC50) against Rat NHE3 was 340 nM. Besides, the Absorbed fraction with Caco-2 cell line was found to be 100%.

As for `c1cnc(CN[C@@H]2C[C@@H]3C[C@H]2[C@@H]2CCC[C@H]32)cn1` (racemic) [Example 18], the Absorbed fraction in the series on Caco-2 cell line is 100%.

Regarding `c1cncc(CN[C@@H]2C[C@@H]3C[C@H]2[C@H]2CCC[C@@H]32)c1` (relative stereo) [Example 6, exo/exo-(octahydro-4,7-methanoinden-5-yl)-pyridin-3-ylmethylamine Hydrochloride], the IC50 against Rat NHE3 came to 2100 nM.

Turning to `c1csc(CN[C@@H]2C[C@@H]3C[C@H]2[C@@H]2CCC[C@H]32)c1` [Example 5, exo/endo-(octahydro-4,7-methanoinden-5-yl)-thiophen-2-ylmethylamine Hydrochloride], at Rat NHE3, the IC50 is 2900 nM.

Take `C/C(=C\c1cccc(/C=C(\C)C(=O)N=C(N)N)c1)C(=O)N=C(N)N.Cl.Cl` [S 2120, reference compound]: the Absorbed fraction with Caco-2 cell line is reported as less than 1%.

In the series on Caco-2 cell line, `C/C(=C\c1cc(C)ccc1/C=C(\C)C(=O)NC(=N)N)C(=O)N=C(N)N` [S 3226, reference compound] returned an Absorbed fraction of less than 5%.

Consider `CC(C)[C@@H](CC[C@@H](C)[C@H]1CC[C@H]2[C@@H]3[C@H](O)C[C@H]4C[C@@H](NCCCNCCCCN)CC[C@]4(C)[C@H]3CC[C@]12C)OS(=O)(=O)O` [squalamine], for which the “time to reach maximum potency” value in the series on NHE3 is given as “only after approximately one hour”.

Broadly, the melting point is the temperature of the solid-liquid transition. For orientation: IC50 means the concentration needed to halve the response being measured. Higher therefore signals weaker potency in that assay.
